# Source: patent US20100087534A1, “Use of a Photosensitizing Agent in the Treatment or Prevention of an Inflammation-Associated Disorder in the Gastrointestinal Tract of a Mammal” (priority 2005, published 2010)
# Assays:
# TNF-α = test: Expression index of TNF-α mRNA in illuminated colon, quantitative real-time PCR; type: in vivo, BALB/c mice
# Source text: The third portion was used for measuring the expression of the molecules involved in immune and inflammatory phenomenons in the colonic mucosa (cytokines, chemokines). For RNA extraction this portion was conserved in RNA-later solution (Ambion Inc. Austin, USA) until processing. RNA was extracted from the tissues using a Rneasy Mini kit (Qiagen, Hombrechtikon, Switzerland). RNA samples were submitted to a second or third DNAse treatment in order to get rid of all traces of genomic DNA. Quality of the RNA samples was tested on agarose gels and absence of genomic DNA was tested by PCR using primers specific for a house keeping gene, glyceraldehydes-3-phosphate-dehydrogenase (GAPDH). RNA preparations were then submitted to reverse transcription using the ThermoScript™ RT-PCR system (Invitrogen, Basel, Switzerland) using an Oligo-dT as primer. Quantification of reverse transcripted messenger RNA for GAPDH, the inducible nitric oxide synthetase (iNOS), interferon-gamma (IFN-γ), interleukin-1 receptor antagonist (IL1-Ra), tumor necrosis factor alpha (TNF-α), interleukin 6 (IL-6), tumor growth factor beta (TGF-13) and interleukin10 (IL-10) was performed by quantitative real-time PCR in a BioRad Real-time PCR iCycler using specific pairs of primers and the green fluorescence dye SYBR—Green®. GAPDH was used to normalize quantifications within each individual sample (normalization of the number of mRNA copies for the gene of interest/1 million mRNA copies of the GAPDH gene of the investigated mouse). Expression of each gene of interest was finally calculated as an expression index (normalized number of mRNA copies of each manipulated mice/normalized number of mRNA copies of the unmanipulated mice) and the results are given as mean values of the expression index (unmanipulated mean mice index=1). Furthermore one kidney and a part of the liver were collected for pathological analysis to exclude hepato- or nephrotoxicity.
# [1] = Safety of colonoscopy and low/high dose PDT in wild type BALB/c mice
# [2] = system: SCID mice with TH1-mediated Crohn-like colitis after transfer of CD4+CD45RBhigh T-cells; test: Endoscopic index of colitis severity (EICS) after low dose PDT in transfer colitis (Example 2); type: in vivo
# Source text: Since in example 1 only 55% of the mice developed colitis, Applicants have injected 4×10^5 cells CD4+CD45RB^high intravenously into 9.5 weeks old SCID mice in the following second set of SCID mice.
# Evolution of colitis in SCID mice was monitored every week by colonoscopic investigation after induction. Mice with moderately inflamed colons [endoscopic index of colitis severity (EICS) index 4-8] or marked inflamed colons (EICS 9-13) were randomly assigned to either a <<low dose>> PDT group or no treatment group (disease control group). Unmanipulated age-matched SCID mice served as negative controls.
# PDT was performed with a photosensitizing agent (δ-ALA) dose of 15 mg/kg, administered 3 hours before the illumination with the energy dose of 10 J/cm^2 per gastrointestinal tract tissue.
# The illumination time was 100 s, the wavelength 635 nm.
# After completing the experiments with 15 mg/kg δ-ALA and 10 J/cm^2, the Applicants evaluated whether an energy illumination energy of 20 or 2 J/cm^2 would provide an equivalent or better effect on colitis. Furthermore, the Applicants sought to determine whether PDT treatment could be repeated at short term and whether this re-treatment would have a beneficial effect on colitis too. To this end, the Applicants performed another set of experiment with marked inflamed mice in which half of the PDT treated mice (15 mg/kg S-ALA and 10 J/cm^2) were subjected to a second identical low dose PDT treatment at the time of the re-apparition of colitis symptoms, namely one week after the first PDT treatment.
# Mice were monitored by colonoscopy at day 3 and weeks 1, 2, 3 and 4 post PDT treatment. In addition to parameters investigated in example 1, CD4 immunostaining and apoptosis detection were performed.
# All statistical analyses were performed using the Prism version 4.0c software from GraphPad Software (San Diego, Calif.). The unpaired two-tail Mann-Whitney test was usually applied, unless the numbers of mice in test groups were too small to perform this test (<5 mice in both test groups) and the unpaired two-tail t test was thus applied. Significance limit was set at a 2-tailed P value≦0.05.
smiles,measurement,setting,value
"NCC(=O)CCC(=O)O [δ-ALA, 5-aminolevulinic acid]",expression index TNF-α,"TNF-α; high dose PDT: 50 J/cm^2, 60 mg δ-ALA, 74 h, unmanipulated mice index=1",5.19±0.93
same,expression index TNF α,"TNF-α; low dose PDT 15 mg/kg δ-ALA, 10 J/cm2",1.16±0.21
same,expression index TNF α,"TNF-α; low dose PDT 5J/cm2, 15 mg/kg δ-ALA",4.49±2.86
same,signs of skin phototoxicity,[1]; all experimental groups,no signs of skin phototoxicity were observed
same,histology of colon (microscopic changes),[1]; all groups other than high dose PDT,no microscopic changes were observed
same,exterior aspect of mice (quality of life),"[1]; all groups other than high dose PDT (low dose PDT, δ-ALA only), 74 h observation",the exterior aspect of mice remained unchanged
same,changes in the blood formula,"[1]; any of the experimental conditions, 0 and 74 h",No significant changes in the blood formula were seen
same,inflammatory cells by anti-MAC immunostaining,"[1]; high dose PDT, compared to naïve mice",an increase of inflammatory cells was observed
same,inflammatory cells by anti-MAC immunostaining,[1]; low dose PDT,did not lead to an increase in inflammatory cells
same,macroscopic aspect of colon,"[1]; low dose PDT, 74 hours",the colon appeared macroscopically normal
same,EICS,"[2]; marked inflamed mice (mean EICS 10.4±0.2 before), 15 mg/kg δ-ALA, 10 J/cm^2, 3 days after PDT, disease control 10.7±0.6, P<0.0001",7.3±0.3
same,EICS,"[2]; marked inflamed mice, 15 mg/kg δ-ALA, 2 J/cm^2, 3 days after PDT, disease control 10.7±0.6, P=0.0271",8.4±0.5
same,EICS versus disease control group,"[2]; marked inflamed mice, 15 mg/kg δ-ALA, 10 J/cm^2, up to 4 weeks after PDT",remained significantly lower than the one of the disease control group mice
same,effect on colitis (EICS) versus disease control group,"[2]; marked inflamed mice, 15 mg/kg δ-ALA, 20 J/cm^2, any time point",did not induce any significant beneficial effect
same,EICS,"[2]; marked inflamed mice, one single PDT treatment, time point 1 week after second PDT of comparison group",9.8±0.5
same,EICS,"[2]; marked inflamed mice, one single PDT treatment, time point 2 weeks after second PDT of comparison group",9.8±0.6
same,EICS,"[2]; marked inflamed mice, two PDT treatments (15 mg/kg, 10 J/cm^2) one week apart, 1 week after second PDT",7.3±0.9
same,EICS,"[2]; marked inflamed mice, two PDT treatments one week apart, 2 weeks after second PDT",7.33±0.3
same,EICS versus disease control group,"[2]; moderately inflamed mice, since week 2 post PDT",appeared no more significantly different from the one of the disease control group
